pIC50: −log10 of the molar value. Active and inactive are the calls of the source. No cut-off for these calls is given here.
How the values were obtained:
[1] = Growth inhibition of human LOXIMVI cells at 10 uM after 48 hrs; assay type: functional; conditions: LOX IMVI, read-out: GI
NCI-H460 = assay: Growth inhibition of human NCI-H460 cells at 10 uM after 48 hrs; assay type: functional; conditions: NCI-H460, 48 h, read-out: GI
MDA-MB-468 = assay: Growth inhibition of human MDA-MB-468 cells at 10 uM after 48 hrs; assay type: functional; conditions: MDA-MB-468, 48 h, read-out: GI
786-0 = assay: Growth inhibition of human 786-0 cells at 10 uM after 48 hrs; assay type: functional; conditions: 786-0, 48 h, read-out: GI
[2] = Growth inhibition of human OVCAR5 cells at 10 uM after 48 hrs; assay type: functional; conditions: OVCAR-5, 48 h, read-out: GI
CAKI-1 = assay: Growth inhibition of human CAKI-1 cells at 10 uM after 48 hrs; assay type: functional; conditions: CAKI-1, 48 h, read-out: GI
M14 = assay: Growth inhibition of human M14 cells at 10 uM after 48 hrs; assay type: functional; conditions: M14, 48 h, read-out: GI
[3] = Growth inhibition of human PC3 cells at 10 uM after 48 hrs; assay type: functional; conditions: PC-3, 48 h, read-out: GI
SK-MEL-5 = assay: Growth inhibition of human SK-MEL-5 cells at 10 uM after 48 hrs; assay type: functional; conditions: SK-MEL-5, 48 h, read-out: GI
[4] = Growth inhibition of human HCC2998 cells at 10 uM after 48 hrs; assay type: functional; conditions: HCC 2998, 48 h, read-out: GI
A498 = assay: Growth inhibition of human A498 cells at 10 uM after 48 hrs; assay type: functional; conditions: A498, 48 h, read-out: GI
[5] = Growth inhibition of human OVCAR8 cells at 10 uM after 48 hrs; assay type: functional; conditions: OVCAR-8, 48 h, read-out: GI
TK-10 = assay: Growth inhibition of human TK10 cells at 10 uM after 48 hrs; assay type: functional; conditions: TK-10, 48 h, read-out: GI
Candida albicans = assay: Antimicrobial activity against Candida albicans assessed as inhibition zone at 200 ug/disk after 24 hrs by disc-diffusion method; assay type: functional; conditions: read-out: IZ
[6] = Growth inhibition of human RXF393 cells at 10 uM after 48 hrs; assay type: functional; conditions: RXF 393, 48 h, read-out: GI
NCI-H522 = assay: Growth inhibition of human NCI-H522 cells at 10 uM after 48 hrs; assay type: functional; conditions: NCI-H522, 48 h, read-out: GI
[7] = Growth inhibition of human HCT116 cells at 10 uM after 48 hrs; assay type: functional; conditions: HCT-116, 48 h, read-out: GI
Pseudomonas aeruginosa = assay: Antimicrobial activity against Pseudomonas aeruginosa assessed as inhibition zone at 200 ug/disk after 24 hrs by disc-diffusion method; assay type: functional; conditions: read-out: IZ
[8] = Growth inhibition of human RPMI8226 cells at 10 uM after 48 hrs; assay type: functional; conditions: RPMI-8226, 48 h, read-out: GI
KM12 = assay: Growth inhibition of human KM12 cells at 10 uM after 48 hrs; assay type: functional; conditions: KM12, 48 h, read-out: GI
MDA-MB-435 = assay: Growth inhibition of human MDA-MB-435 cells at 10 uM after 48 hrs; assay type: functional; conditions: MDA-MB-435, 48 h, read-out: GI
[9] = Growth inhibition of human HOP92 cells at 10 uM after 48 hrs; assay type: functional; conditions: HOP-92, 48 h, read-out: GI
SW-620 = assay: Growth inhibition of human SW620 cells at 10 uM after 48 hrs; assay type: functional; conditions: SW-620, 48 h, read-out: GI
[10] = Growth inhibition of human BT549 cells at 10 uM after 48 hrs; assay type: functional; conditions: BT-549, 48 h, read-out: GI
K562 = assay: Growth inhibition of human K562 cells at 10 uM after 48 hrs; assay type: functional; conditions: K562, 48 h, read-out: GI
SN12C = assay: Growth inhibition of human SN12C cells at 10 uM after 48 hrs; assay type: functional; conditions: read-out: GI
[11] = Growth inhibition of human Hs 578T cells at 10 uM after 48 hrs; assay type: functional; conditions: read-out: GI
MCF7 = assay: Growth inhibition of human MCF7 cells at 10 uM after 48 hrs; assay type: functional; conditions: MCF7, 48 h, read-out: GI
HL-60(TB) = assay: Growth inhibition of human HL-60(TB) cells at 10 uM after 48 hrs; assay type: functional; conditions: HL-60, 48 h, read-out: GI
Escherichia coli = assay: Antimicrobial activity against Escherichia coli assessed as inhibition zone at 200 ug/disk after 24 hrs by disc-diffusion method; assay type: functional; conditions: read-out: IZ
[12] = Growth inhibition of human NCI-ADR-RES cells at 10 uM after 48 hrs; assay type: functional; conditions: read-out: GI
[13] = Growth inhibition of human UACC257 cells at 10 uM after 48 hrs; assay type: functional; conditions: UACC-257, 48 h, read-out: GI
SNB-19 = assay: Growth inhibition of human SNB19 cells at 10 uM after 48 hrs; assay type: functional; conditions: SNB-19, 48 h, read-out: GI
ACHN = assay: Growth inhibition of human ACHN cells at 10 uM after 48 hrs; assay type: functional; conditions: read-out: GI
T47D = assay: Growth inhibition of human T47D cells at 10 uM after 48 hrs; assay type: functional; conditions: read-out: GI
[14] = Growth inhibition of human UO31 cells at 10 uM after 48 hrs; assay type: functional; conditions: UO-31, 48 h, read-out: GI
Bacillus subtilis [15] = assay: Antimicrobial activity against Bacillus subtilis assessed as inhibition zone at 200 ug/disk after 24 hrs by disc-diffusion method; assay type: functional; conditions: read-out: IZ
CCRF-CEM = assay: Growth inhibition of human CCRF-CEM cells at 10 uM after 48 hrs; assay type: functional; conditions: read-out: GI
[16] = Growth inhibition of human SF295 cells at 10 uM after 48 hrs; assay type: functional; conditions: SF-295, 48 h, read-out: GI
[17] = Growth inhibition of human HCT15 cells at 10 uM after 48 hrs; assay type: functional; conditions: HCT-15, 48 h, read-out: GI
NCI-H23 = assay: Growth inhibition of human NCI-H23 cells at 10 uM after 48 hrs; assay type: functional; conditions: NCI-H23, 48 h, read-out: GI
MDA-MB-231 = assay: Growth inhibition of human MDA-MB-231 cells at 10 uM after 48 hrs; assay type: functional; conditions: MDA-MB-231, 48 h, read-out: GI
HT-29 = assay: Growth inhibition of human HT-29 cells at 10 uM after 48 hrs; assay type: functional; conditions: HT-29, 48 h, read-out: GI
Dihydrofolate reductase = biological target: T1, Dihydrofolate reductase (Bos taurus, UniProt P00376); assay: Inhibition of bovine liver DHFR
T1 sequence (P00376 whole entry): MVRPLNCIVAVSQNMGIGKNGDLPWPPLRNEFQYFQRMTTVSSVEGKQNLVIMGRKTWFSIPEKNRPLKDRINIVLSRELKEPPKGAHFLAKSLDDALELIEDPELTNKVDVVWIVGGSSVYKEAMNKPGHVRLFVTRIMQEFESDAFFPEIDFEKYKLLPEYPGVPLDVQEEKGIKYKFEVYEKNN

Staphylococcus aureus [18] = assay: Antimicrobial activity against Staphylococcus aureus assessed as inhibition zone at 200 ug/disk after 24 hrs by disc-diffusion method; assay type: functional; conditions: read-out: IZ
U-251 = assay: Growth inhibition of human U251 cells at 10 uM after 48 hrs; assay type: functional; conditions: U-251, 48 h, read-out: GI
[19] = Growth inhibition of human OVCAR4 cells at 10 uM after 48 hrs; assay type: functional; conditions: OVCAR-4, 48 h, read-out: GI
[20] = Growth inhibition of human MOLT4 cells at 10 uM after 48 hrs; assay type: functional; conditions: MOLT-4, 48 h, read-out: GI
A549 = assay: Growth inhibition of human A549 cells at 10 uM after 48 hrs; assay type: functional; conditions: A549, 48 h, read-out: GI
NCI-H226 = assay: Growth inhibition of human NCI-H226 cells at 10 uM after 48 hrs; assay type: functional; conditions: NCI-H226, 48 h, read-out: GI
[21] = Growth inhibition of human UACC62 cells at 10 uM after 48 hrs; assay type: functional; conditions: UACC-62, 48 h, read-out: GI
SR = assay: Growth inhibition of human SR cells at 10 uM after 48 hrs; assay type: functional; conditions: read-out: GI
Staphylococcus aureus [22] = assay: Antimicrobial activity against Staphylococcus aureus assessed as inhibition of visible growth after 24 hrs by disc-diffusion method; assay type: functional, organism-based
SF-268 = assay: Growth inhibition of human SF268 cells at 10 uM after 48 hrs; assay type: functional; conditions: SF-268, 48 h, read-out: GI
Bacillus subtilis [23] = assay: Antimicrobial activity against Bacillus subtilis assessed as inhibition of visible growth after 24 hrs by disc-diffusion method; assay type: functional, organism-based
[24] = Growth inhibition of human OVCAR3 cells at 10 uM after 48 hrs; assay type: functional; conditions: OVCAR-3, 48 h, read-out: GI
Malme-3M = assay: Growth inhibition of human MALME-3M cells at 10 uM after 48 hrs; assay type: functional; conditions: read-out: GI

Structure (SMILES): Cc1nc(N)sc1Sc1nc2ccc(Cl)cc2c(=O)n1-c1ccc(Oc2ccccc2)cc1
- inhibition of growth at 10 µM [1]: 24.5%
- inhibition of growth at 10 µM (NCI-H460): 18%
- inhibition of growth at 10 µM (MDA-MB-468): 23.4%
- inhibition of growth at 10 µM (786-0): 31.5%
- inhibition of growth at 10 µM [2]: 12.1%
- inhibition of growth at 10 µM (CAKI-1): 26.5%
- inhibition of growth at 10 µM (M14): 23.4%
- inhibition of growth at 10 µM [3]: 51.1%
- inhibition of growth at 10 µM (SK-MEL-5): 23.9%
- inhibition of growth at 10 µM [4]: 26%
- inhibition of growth at 10 µM (A498): 60.2%
- inhibition of growth at 10 µM [5]: 24.9%
- inhibition of growth at 10 µM (TK-10): 11.1%
- zone of inhibition at 200 µg/disc (Candida albicans): 8 mm
- inhibition of growth at 10 µM [6]: 13.4%
- inhibition of growth at 10 µM (NCI-H522): 14.7%
- inhibition of growth at 10 µM [7]: 66.7%
- zone of inhibition at 200 µg/disc (Pseudomonas aeruginosa): 8 mm
- inhibition of growth at 10 µM [8]: 32%
- inhibition of growth at 10 µM (KM12): 20.2%
- inhibition of growth at 10 µM (MDA-MB-435): 11.9%
- inhibition of growth at 10 µM [9]: 25.6%
- inhibition of growth at 10 µM (SW-620): 33.9%
- inhibition of growth at 10 µM [10]: 36.8%
- inhibition of growth at 10 µM (K562): 25.7%
- inhibition of growth at 10 µM (SN12C): 26.1%
- inhibition of growth at 10 µM [11]: 18.1%
- inhibition of growth at 10 µM (MCF7): 12.6%
- inhibition of growth at 10 µM (HL-60(TB)): 40.6%
- zone of inhibition at 200 µg/disc (Escherichia coli): 8 mm
- inhibition of growth at 10 µM [12]: 30.1%
- inhibition of growth at 10 µM [13]: 24.3%
- inhibition of growth at 10 µM (SNB-19): 30.7%
- inhibition of growth at 10 µM (ACHN): 21.5%
- inhibition of growth at 10 µM (T47D): 24.5%
- inhibition of growth at 10 µM [14]: 38.3%
- zone of inhibition at 200 µg/disc (Bacillus subtilis [15]): 8 mm
- inhibition of growth at 10 µM (CCRF-CEM): 58.5%
- inhibition of growth at 10 µM [16]: 32.2%
- inhibition of growth at 10 µM [17]: 44.6%
- inhibition of growth at 10 µM (NCI-H23): 26%
- inhibition of growth at 10 µM (MDA-MB-231): 10.7%
- inhibition of growth at 10 µM (HT-29): 44.1%
- pIC50 (Dihydrofolate reductase): 6.00
- zone of inhibition at 200 µg/disc (Staphylococcus aureus [18]): 8 mm
- inhibition of growth at 10 µM (U-251): 22.8%
- inhibition of growth at 10 µM [19]: 59.1%
- inhibition of growth at 10 µM [20]: 55.7%
- inhibition of growth at 10 µM (A549): 29.8%
- inhibition of growth at 10 µM (NCI-H226): 13.6%
- inhibition of growth at 10 µM [21]: 36.1%

Structure (SMILES): Cc1nc(N)sc1Sc1nc2ccc(Cl)cc2c(=O)n1Cc1ccccc1
- inhibition of growth at 10 µM [1]: 23.2%
- inhibition of growth at 10 µM (SR): 16.1%
- inhibition of growth at 10 µM [3]: 15.8%
- Activity (Staphylococcus aureus [22]): Active
- inhibition of growth at 10 µM (SF-268): 13.3%
- zone of inhibition at 200 µg/disc (Candida albicans): 8 mm
- inhibition of growth at 10 µM (NCI-H522): 35.4%
- Activity (Bacillus subtilis [23]): Active
- zone of inhibition at 200 µg/disc (Pseudomonas aeruginosa): 8 mm
- inhibition of growth at 10 µM [8]: 20.8%
- inhibition of growth at 10 µM [9]: 16.8%
- inhibition of growth at 10 µM (K562): 17.6%
- zone of inhibition at 200 µg/disc (Escherichia coli): 12 mm
- inhibition of growth at 10 µM (T47D): 14.7%
- inhibition of growth at 10 µM [14]: 36.4%
- zone of inhibition at 200 µg/disc (Bacillus subtilis [15]): 19 mm
- inhibition of growth at 10 µM (NCI-H23): 13.6%
- pIC50 (Dihydrofolate reductase): 5.30
- zone of inhibition at 200 µg/disc (Staphylococcus aureus [18]): 18 mm
- inhibition of growth at 10 µM [24]: 14.9%
- inhibition of growth at 10 µM (Malme-3M): 15.9%
- inhibition of growth at 10 µM [19]: 20.9%
- inhibition of growth at 10 µM [20]: 16%
- inhibition of growth at 10 µM (NCI-H226): 10.4%
- inhibition of growth at 10 µM [21]: 15.2%

From ChEMBL document CHEMBL3352542, “Synthesis, biological evaluation and molecular modeling study of 2-(1,3,4-thiadiazolyl-thio and 4-methyl-thiazolyl-thio)-quinazolin-4-ones as a new class of DHFR inhibitors” (Bioorg Med Chem Lett, 2014)
